Source: ChEMBL document CHEMBL1147320, “Isolation of a novel tyrosine kinase inhibitor, lavendustin A, from Streptomyces griseolavendus” (J Nat Prod, 1989)
≈ marks a conversion by molar mass, not a printed value. Calls of active or inactive are those of the source. The calls are words filed in the database; no cut-off is given here.

Legend:
[1] = target: Epidermal growth factor receptor (Mus musculus, UniProt Q01279); experiment: Inhibition of mouse EGFR by liquid scintillation counting
[2] = Inhibition of protein kinase A
[3] = Inhibition of protein kinase C
[4] = Inhibition of phosphatidylinositol kinase
[5] = target: Epidermal growth factor receptor (Homo sapiens, UniProt P00533)
A-431 = experiment: Cytotoxicity against human A431 cells; format: functional, cell-based
[6] = target: Epidermal growth factor receptor (Mus musculus) (UniProt Q01279); experiment: Inhibition of mouse EGFR using [32P]gammaATP as substrate by competitive Lineweaver-Burke plot
[7] = target: Epidermal growth factor receptor (Mus musculus) (UniProt Q01279); experiment: Inhibition of mouse EGFR using tridecapeptide as substrate by uncompetitive Lineweaver-Burke plot
[8] = Cytotoxicity against mouse NIH/3T3 cells; format: cell-based; details: NIH3T3
NIH3T3 = experiment: Cytotoxicity against RSV transformed mouse NIH/3T3 cells; format: functional, cell-based
P388 = experiment: Cytotoxicity against mouse P388 cells; format: functional, cell-based
L1210 = experiment: Cytotoxicity against mouse L1210 cells; format: functional, cell-based

Sequence of Epidermal growth factor receptor (Mus musculus, UniProt Q01279) (Q01279 whole entry): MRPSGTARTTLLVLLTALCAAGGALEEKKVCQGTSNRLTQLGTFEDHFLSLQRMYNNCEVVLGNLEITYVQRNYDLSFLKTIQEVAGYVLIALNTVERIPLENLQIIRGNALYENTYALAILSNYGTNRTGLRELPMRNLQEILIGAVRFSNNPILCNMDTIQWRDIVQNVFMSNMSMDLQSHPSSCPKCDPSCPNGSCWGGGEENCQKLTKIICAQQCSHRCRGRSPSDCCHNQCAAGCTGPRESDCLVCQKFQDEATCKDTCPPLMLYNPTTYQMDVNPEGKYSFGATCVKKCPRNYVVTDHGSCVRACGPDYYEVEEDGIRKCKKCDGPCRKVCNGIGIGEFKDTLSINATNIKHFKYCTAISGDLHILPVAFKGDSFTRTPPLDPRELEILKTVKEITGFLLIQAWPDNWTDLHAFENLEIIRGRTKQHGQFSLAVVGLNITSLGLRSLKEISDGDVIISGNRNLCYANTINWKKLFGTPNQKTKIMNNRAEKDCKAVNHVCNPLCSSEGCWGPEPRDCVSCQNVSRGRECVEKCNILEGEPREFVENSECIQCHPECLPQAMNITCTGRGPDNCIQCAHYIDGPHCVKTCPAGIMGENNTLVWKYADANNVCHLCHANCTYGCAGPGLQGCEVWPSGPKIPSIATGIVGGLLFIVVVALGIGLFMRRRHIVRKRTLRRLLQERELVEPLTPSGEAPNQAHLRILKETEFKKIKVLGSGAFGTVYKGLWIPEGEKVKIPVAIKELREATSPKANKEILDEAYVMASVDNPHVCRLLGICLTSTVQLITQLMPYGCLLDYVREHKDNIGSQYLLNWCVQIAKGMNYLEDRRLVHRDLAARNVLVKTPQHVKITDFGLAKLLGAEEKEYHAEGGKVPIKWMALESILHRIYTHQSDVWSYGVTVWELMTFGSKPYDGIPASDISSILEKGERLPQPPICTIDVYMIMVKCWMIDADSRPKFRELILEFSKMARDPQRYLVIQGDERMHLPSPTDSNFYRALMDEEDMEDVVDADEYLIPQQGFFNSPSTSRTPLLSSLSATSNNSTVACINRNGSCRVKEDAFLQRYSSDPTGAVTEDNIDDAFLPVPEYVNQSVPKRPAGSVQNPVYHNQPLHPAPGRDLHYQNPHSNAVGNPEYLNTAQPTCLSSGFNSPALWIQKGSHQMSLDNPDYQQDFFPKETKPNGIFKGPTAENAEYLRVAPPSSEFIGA
Sequence of Epidermal growth factor receptor (Mus musculus) (Q01279 whole entry): as above
Sequence of Epidermal growth factor receptor (Homo sapiens, UniProt P00533) (P00533 whole entry): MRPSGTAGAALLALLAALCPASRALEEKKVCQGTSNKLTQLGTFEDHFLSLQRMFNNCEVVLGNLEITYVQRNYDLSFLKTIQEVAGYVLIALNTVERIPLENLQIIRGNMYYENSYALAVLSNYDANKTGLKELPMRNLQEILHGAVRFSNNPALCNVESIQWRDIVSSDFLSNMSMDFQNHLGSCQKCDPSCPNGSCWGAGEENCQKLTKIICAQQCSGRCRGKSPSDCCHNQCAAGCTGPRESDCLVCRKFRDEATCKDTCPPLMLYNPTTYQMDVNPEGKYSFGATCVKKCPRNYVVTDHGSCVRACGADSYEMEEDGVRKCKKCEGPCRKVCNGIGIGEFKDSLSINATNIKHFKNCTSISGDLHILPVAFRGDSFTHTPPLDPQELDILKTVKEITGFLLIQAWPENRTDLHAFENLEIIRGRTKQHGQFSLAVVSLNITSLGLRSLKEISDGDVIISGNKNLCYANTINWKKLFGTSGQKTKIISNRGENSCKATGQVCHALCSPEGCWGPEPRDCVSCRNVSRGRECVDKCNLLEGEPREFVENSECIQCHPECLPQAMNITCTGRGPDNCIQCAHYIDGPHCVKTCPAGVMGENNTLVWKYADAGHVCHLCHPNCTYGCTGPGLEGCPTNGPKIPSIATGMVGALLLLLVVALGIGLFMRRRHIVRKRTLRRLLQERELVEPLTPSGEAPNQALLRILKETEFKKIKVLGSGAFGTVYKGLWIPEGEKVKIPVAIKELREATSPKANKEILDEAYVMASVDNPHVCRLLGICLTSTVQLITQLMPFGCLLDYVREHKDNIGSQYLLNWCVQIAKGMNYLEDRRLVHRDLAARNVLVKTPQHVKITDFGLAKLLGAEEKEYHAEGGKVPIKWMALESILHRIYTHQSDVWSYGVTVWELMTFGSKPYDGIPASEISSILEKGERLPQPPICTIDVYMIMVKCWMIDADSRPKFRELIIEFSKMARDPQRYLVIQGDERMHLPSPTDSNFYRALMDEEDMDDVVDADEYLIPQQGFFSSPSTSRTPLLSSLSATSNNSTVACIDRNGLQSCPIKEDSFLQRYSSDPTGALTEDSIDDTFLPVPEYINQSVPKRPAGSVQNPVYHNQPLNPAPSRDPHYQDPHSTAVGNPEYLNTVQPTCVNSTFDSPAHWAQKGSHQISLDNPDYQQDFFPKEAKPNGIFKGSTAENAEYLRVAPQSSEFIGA

`O=CN/C=C/c1cc(O)ccc1O` [ERBSTATIN] showed an IC50 [1] of 1120 nM, an IC50 [2] of 100 µg/mL (≈ 558 µM) and an IC50 [3] of over 179 µg/mL. For the same molecule, the IC50 [4] was 25 µg/mL (≈ 140 µM) and the IC50 [5] was 1120 nM.

For `O=Cc1cc(O)ccc1O`, the IC50 [1] was 239000 nM.

Molecule `O=C(O)c1cc(/N=C\c2cc(O)ccc2O)ccc1O` has an IC50 [1] of 2780 nM.

In the case of `O=C(O)c1cc(N(Cc2ccccc2O)Cc2ccccc2O)ccc1O` [LAVENDUSTIN B], the IC50 [1] is reported as 1340 nM.

In the case of `O=C(O)c1ccc(O)c(N(Cc2ccccc2O)Cc2cc(O)ccc2O)c1`, the IC50 [1] is reported as 446 nM.

With `O=C(O)c1cc(N(Cc2cc(O)ccc2O)Cc2cc(O)ccc2O)ccc1O` the IC50 [1] was 27.7 nM.

Work on `Nc1cc(C(=O)O)ccc1O` yielded an IC50 [1] of over 653000 nM.

For `Nc1ccc(O)c(C(=O)O)c1` [MESALAMINE], the IC50 [1] was 17600 nM.

With `O=C(O)c1cc(N(Cc2ccccc2O)Cc2cc(O)ccc2O)ccc1O` [LAVENDUSTIN A] the IC50 (A-431) was 26 µg/mL (≈ 68.2 µM), the IC50 [1] was 11.5 nM and the IC50 [2] was over 100 µg/mL. The IC50 [3] was over 100 µg/mL, the IC50 [4] was 6.4 µg/mL (≈ 16.8 µM) and the Activity [6] was “Active”. For the same molecule, the Activity [7] was “Active”, the IC50 [8] was 22 µg/mL (≈ 57.7 µM) and the IC50 (NIH3T3) was 19.5 µg/mL (≈ 51.1 µM). It also gave an IC50 (P388) of 21.5 µg/mL (≈ 56.4 µM) and an IC50 (L1210) of 28 µg/mL (≈ 73.4 µM).
